Like-named read-outs stand apart in the source and are kept apart here.
Assays:
[1] = Clinical study on volunteers: blood (serum) concentration and pharmacokinetic parameters of curcumin after oral administration; assay type: in vivo, healthy volunteers
Procedure: Subsequently, up to 1 h, a rapid decrease is observed followed by a gradual decline to 0 in the next three hours. The following Table lists the pharmacokinetic parameters (mean ± SEM). Table
The maximum serum concentration, when administered alone, was just 0.006 µg/ml 1 hour after administration, while in combination with piperine, the maximum serum concentration (Cmax) had increased to 0.18 µg/ml and was reached earlier at 0.75 h from the administration. The volume of distribution (Vd) and the total clearance value (CI) were not calculated for curcumin administered alone as it was not possible to determine the serum levels in most of the measurements of the greater number of subjects. […] 4 and in the preceding table reflect an increase in the bioavailability of curcumin equal to 2000% in the subjects treated with the combination of curcumin and piperine.

Nrf2 [2] = assay: Expression of Nrf2 protein in nuclear extracts (Western blot); assay type: cell-based, Human; conditions: 15 µM, after one hour up to 12h, three independent Western blots
Source text: Curcumin (CUR), N-acetyl-L-cysteine (NAC) and glutathione in reduced (GSH) and oxidised (GSSG) form and other reagents were supplied by Sigma. Human alveolar epithelial cells A549 were purchased from American Type Culture Collection (ATCC CCL-185). […] The combination of NAC and CUR induced a slightly higher level of Nrf2 expression.

[3] = system: glutathione reductase (GRX); assay: Glutathione reductase (GRX) mRNA expression by quantitative real-time PCR compared to GAPDH; assay type: cell-based, Human; conditions: 15 µM, 6 h
Source text: (§1) Curcumin (CUR), N-acetyl-L-cysteine (NAC) and glutathione in reduced (GSH) and oxidised (GSSG) form and other reagents were supplied by Sigma. Human alveolar epithelial cells A549 were purchased from American Type Culture Collection (ATCC CCL-185). […] GRX is a key enzyme in the regulation of the cellular oxidative state, being responsible for the regeneration of GSH from GSSG and in the regeneration of dehydroascorbate.

[4] = system: Human alveolar epithelial cells A549; assay: Determination of intracellular glutathione (GSH and GSSG), glutathione reductase-recycling analysis; assay type: cell-based; conditions: different concentrations (0-50 µM), 6 hours
Procedure: Curcumin (CUR), N-acetyl-L-cysteine (NAC) and glutathione in reduced (GSH) and oxidised (GSSG) form and other reagents were supplied by Sigma. Human alveolar epithelial cells A549 were purchased from American Type Culture Collection (ATCC CCL-185). Levels of reduced (GSH) and oxidised (GSSG) Glutathione were measured after exposure of the cells for 6 hours to curcumin, NAC and curcumin and NAC association (ratio 1/1) using the method already described in Calabrese et al. 1998; Motterlini et al. 2000a). Cells harvested in cold PBS were frozen-thawed three times and an aliquot of this suspension was added to a buffer solution containing […] of EDTA and 10 mM of 5,5-dithiobis- (2-nitrobenzoic acid). The total glutathione was measured by spectroscopy (optical density of 412 nm) using the glutathione reductase-recycling analysis. In order to determine the quantity of GSSG, an aliquot of the cell suspension was added to an equal volume of buffer containing EDTA and N-ethylmaleimide (10 mM). The sample was mixed and centrifuged and the supernatant was passed through a Sep-Pak C18 cartridge (Waters, Milford, MA) to remove the excess of N-ethylmaleimide. […] Intracellular glutathione was determined by comparison with a standard curve obtained with standard solutions of GSH and GSSG and was expressed as nmoles/mg protein. […]

Nrf2 [5] = assay: Nrf2 mRNA expression by quantitative real-time PCR compared to GAPDH; assay type: cell-based, Human; conditions: 15 µM, 6 h
Source text: as §1

HO-1 = HO-1 mRNA expression by quantitative real-time PCR compared to GAPDH; assay type: cell-based, Human; conditions: 15 µM, 6 h
Source text: as §1

Row | Tmax ([1]; human, 2 g, serum curcumin, oral administration, healthy volunteers (n = 8), mean ± SEM) [h] | Cmax ([1]; human, 2 g, serum curcumin, oral administration, healthy volunteers (n = 8), mean ± SEM, read-out: Cmax) [ng/mL] | Serum levels of curcumin ([1]; oral, 2 g of curcumin alone or with 20 mg of piperine, measurements up to 0.75 h) | Cmax ([1]; serum curcumin, oral administration, healthy volunteers (n = 8), mean ± SEM) [ng/mL] | AUC(0-∞) ([1]; serum curcumin, oral administration, healthy volunteers (n = 8), trapezoidal method, mean ± SEM) [µg/h/mL] | glutathione reductase (GRX) mRNA [3] | Structure (SMILES) | expression of the protein Nrf2 in the nucleic extracts (Nrf2 [2]) | levels of GSSG [4] | intracellular GSH ([4]; dose-dependent) | Nrf2 mRNA (Nrf2 [5]) | HO-1 mRNA (HO-1)
1 | 1 | 6 | very low or undetectable | 6 ± 5 | 0.004 |  | COc1cc(/C=C/C(=O)CC(=O)/C=C/c2ccc(O)c(OC)c2)ccc1O [Curcumin, (1E, 6E)-1,7-bis-(4-hydroxy-3-methoxyphenyl)-epta-1,6-dien-3,5-dione] |  |  |  |  | 
2 |  |  |  |  |  | able to induce GRX significantly | CC(=O)N[C@@H](CS)C(=O)O [NAC, N-acetyl-L-cysteine] | not able to induce an increase | did not increase | increase of GSH | not active | not active
